Test results: patent US10696615B2, “Prenylated hydroxystilbenes” (The University of Sydney, priority 2011, dated 2020)

How the values were obtained:
Assay type in all cases: cell-based, human
NCI-H322M = test: NCI in vitro cancer screen, Non-Small Cell Lung Cancer
SK-MEL-28 = test: NCI in vitro cancer screen, Melanoma; details: SK-MEL-28
TK-10 = test: NCI in vitro cancer screen, Renal Cancer; details: TK-10
SW-620 = test: NCI in vitro cancer screen, Colon Cancer; details: SW-620
SK-MEL-2 = test: NCI in vitro cancer screen, Melanoma; details: SK-MEL-2
UACC-62 = test: NCI in vitro cancer screen, Melanoma; details: UACC-62
A549/ATCC = test: NCI in vitro cancer screen, Non-Small Cell Lung Cancer
MCF7 = test: NCI in vitro cancer screen, Breast Cancer; details: MCF7
OVCAR-5 = test: NCI in vitro cancer screen, Ovarian Cancer; details: OVCAR-5
MDA-MB-435 = test: NCI in vitro cancer screen, Melanoma; details: MDA-MB-435
CCRF-CEM = test: NCI in vitro cancer screen, Leukemia
SF-295 = test: NCI in vitro cancer screen, CNS Cancer; details: SF-295
DU-145 = test: NCI in vitro cancer screen, Prostate Cancer; details: DU-145
MDA-MB-468 = test: NCI in vitro cancer screen, Breast Cancer; details: MDA-MB-468
SNB-75 = test: NCI in vitro cancer screen, CNS Cancer; details: SNB-75
OVCAR-3 = test: NCI in vitro cancer screen, Ovarian Cancer; details: OVCAR-3
ACHN = test: NCI in vitro cancer screen, Renal Cancer
PC-3 = test: NCI in vitro cancer screen, Prostate Cancer; details: PC-3
RXF-393 = test: NCI in vitro cancer screen, Renal Cancer; details: RXF-393
SK-OV-3 = test: NCI in vitro cancer screen, Ovarian Cancer; details: SK-OV-3
NCI-H23 = test: NCI in vitro cancer screen, Non-Small Cell Lung Cancer; details: NCI-H23
U251 = test: NCI in vitro cancer screen, CNS Cancer; details: U251
T-47D = test: NCI in vitro cancer screen, Breast Cancer
OVCAR-8 = test: NCI in vitro cancer screen, Ovarian Cancer; details: OVCAR-8
SK-MEL-5 = test: NCI in vitro cancer screen, Melanoma; details: SK-MEL-5
HT29 = test: NCI in vitro cancer screen, Colon Cancer; details: HT29
K-562 = test: NCI in vitro cancer screen, Leukemia; details: K-562
KM12 = test: NCI in vitro cancer screen, Colon Cancer; details: KM12
UO-31 = test: NCI in vitro cancer screen, Renal Cancer; details: UO-31
SNB-19 = test: NCI in vitro cancer screen, CNS Cancer; details: SNB-19
NCI-H460 = test: NCI in vitro cancer screen, Non-Small Cell Lung Cancer; details: NCI-H460
[1] = Homo sapiens, read-out: LC50 (the source's name)

## CC(C)=CCc1c(O)cc(/C=C/c2ccc(O)cc2)c(CC=C(C)C)c1O [USYDS6, (E)-2,4-di(3-methyl-2-buten-1-yl)-3,4′,5-trihydroxystilbene]
NCI-H322M
  TGI: 25.5 µM
NCI-H322M; Homo sapiens
  GI50: 1.16 µM
SK-MEL-28; Homo sapiens
  GI50: 11.2 µM
SK-MEL-28
  TGI: 24.0 µM
TK-10; Homo sapiens
  GI50: 3.36 µM
TK-10
  TGI: 9.33 µM
SW-620; Homo sapiens
  GI50: 1.84 µM
SW-620; [1]
  CC50: 6.82 µM
SW-620
  TGI: 3.54 µM
SK-MEL-2; Homo sapiens
  GI50: 13.1 µM
SK-MEL-2
  TGI: 33.6 µM
UACC-62; Homo sapiens
  GI50: 10.3 µM
UACC-62; [1]
  CC50: 53.8 µM
UACC-62
  TGI: 23.5 µM
A549/ATCC
  TGI: 8.42 µM
A549/ATCC; Homo sapiens
  GI50: 2.69 µM
A549/ATCC; [1]
  CC50: 33.7 µM
MCF7; Homo sapiens
  GI50: 4.02 µM
MCF7; [1]
  CC50: 60.5 µM
MCF7
  TGI: 18.0 µM
OVCAR-5; Homo sapiens
  GI50: 5.86 µM
OVCAR-5; [1]
  CC50: 53.3 µM
OVCAR-5
  TGI: 20.0 µM
MDA-MB-435; Homo sapiens
  GI50: 3.37 µM
MDA-MB-435; [1]
  CC50: 42.1 µM
MDA-MB-435
  TGI: 10.8 µM
CCRF-CEM
  TGI: 9.17 µM
CCRF-CEM; Homo sapiens
  GI50: 2.96 µM
CCRF-CEM; [1]
  CC50: 82.1 µM
SF-295; Homo sapiens
  GI50: 6.78 µM
SF-295; [1]
  CC50: 53.2 µM
SF-295
  TGI: 20.8 µM
DU-145
  TGI: 12.9 µM
DU-145; Homo sapiens
  GI50: 3.47 µM
DU-145; [1]
  CC50: 40.1 µM
MDA-MB-468; Homo sapiens
  GI50: 2.3 µM
MDA-MB-468; [1]
  CC50: 26 µM
MDA-MB-468
  TGI: 6.39 µM
SNB-75; Homo sapiens
  GI50: 6.67 µM
SNB-75; [1]
  CC50: 54 µM
SNB-75
  TGI: 21.4 µM
OVCAR-3; Homo sapiens
  GI50: 2.1 µM
OVCAR-3; [1]
  CC50: 8.85 µM
OVCAR-3
  TGI: 4.31 µM
ACHN
  TGI: 14.6 µM
ACHN; Homo sapiens
  GI50: 3.94 µM
ACHN; [1]
  CC50: 50.4 µM
PC-3; Homo sapiens
  GI50: 1.8 µM
PC-3; [1]
  CC50: 8.44 µM
PC-3
  TGI: 3.89 µM
RXF-393; Homo sapiens
  GI50: 2.15 µM
RXF-393; [1]
  CC50: 18.7 µM
RXF-393
  TGI: 5.39 µM
SK-OV-3; Homo sapiens
  GI50: 13.9 µM
SK-OV-3; [1]
  CC50: 53.2 µM
SK-OV-3
  TGI: 27.1 µM
NCI-H23; Homo sapiens
  GI50: 3.38 µM
NCI-H23
  TGI: 15.7 µM
U251; Homo sapiens, U-251
  GI50: 2.33 µM
U251; Homo sapiens, U-251, read-out: LC50 (the source's name)
  CC50: 16.7 µM
U251
  TGI: 5.31 µM
T-47D
  TGI: 20.3 µM
T-47D; Homo sapiens, T47D
  GI50: 5.03 µM
T-47D; Homo sapiens, T47D, read-out: LC50 (the source's name)
  CC50: 57.9 µM
OVCAR-8; Homo sapiens
  GI50: 2.95 µM
OVCAR-8; [1]
  CC50: 42.9 µM
OVCAR-8
  TGI: 9.51 µM
SK-MEL-5; Homo sapiens
  GI50: 2.29 µM
SK-MEL-5; [1]
  CC50: 22.1 µM
SK-MEL-5
  TGI: 6.17 µM
HT29
  TGI: 17.6 µM
HT29; Homo sapiens, HT-29
  GI50: 5.44 µM
HT29; Homo sapiens, HT-29, read-out: LC50 (the source's name)
  CC50: 48.3 µM
K-562; Homo sapiens, K562
  GI50: 1.46 µM
K-562; Homo sapiens, K562, read-out: LC50 (the source's name)
  CC50: 22.6 µM
K-562
  TGI: 4.13 µM
KM12; Homo sapiens
  GI50: 2.21 µM
KM12; [1]
  CC50: 8.64 µM
KM12
  TGI: 4.37 µM
UO-31; Homo sapiens
  GI50: 2.51 µM
UO-31; [1]
  CC50: 33.5 µM
UO-31
  TGI: 7.50 µM
SNB-19; Homo sapiens
  GI50: 6.38 µM
SNB-19; [1]
  CC50: 52.7 µM
SNB-19
  TGI: 20.6 µM
NCI-H460; Homo sapiens
  GI50: 1.89 µM
NCI-H460; [1]
  CC50: 8.06 µM
NCI-H460
  TGI: 3.90 µM
